Test results: the kinase profiling compilation of Christmann-Franck et al. (2016)

What was measured:
Test in all cases: KINOMEscan competition binding
Conditions in all cases: compound 10.0 µM
STK25 (human) = STK25 (human) (UniProt O00506)
CSNK2A1 (human) = CSNK2A1 (human) (UniProt P68400)
MELK (human) = MELK (human) (UniProt Q14680)
MAPK3 (human) = MAPK3 (human) (UniProt P27361)
RIPK1 (human) = RIPK1 (human) (UniProt Q13546)
PHKG1 (human) = PHKG1 (human) (UniProt Q16816)
CDC42BPB (human) = CDC42BPB (human) (UniProt Q9Y5S2)
CSNK1G2 (human) = CSNK1G2 (human) (UniProt P78368)
BRSK1 (human) = BRSK1 (human) (UniProt Q8TDC3)
BRSK1 (human), sequence (Q8TDC3 whole entry, looked up): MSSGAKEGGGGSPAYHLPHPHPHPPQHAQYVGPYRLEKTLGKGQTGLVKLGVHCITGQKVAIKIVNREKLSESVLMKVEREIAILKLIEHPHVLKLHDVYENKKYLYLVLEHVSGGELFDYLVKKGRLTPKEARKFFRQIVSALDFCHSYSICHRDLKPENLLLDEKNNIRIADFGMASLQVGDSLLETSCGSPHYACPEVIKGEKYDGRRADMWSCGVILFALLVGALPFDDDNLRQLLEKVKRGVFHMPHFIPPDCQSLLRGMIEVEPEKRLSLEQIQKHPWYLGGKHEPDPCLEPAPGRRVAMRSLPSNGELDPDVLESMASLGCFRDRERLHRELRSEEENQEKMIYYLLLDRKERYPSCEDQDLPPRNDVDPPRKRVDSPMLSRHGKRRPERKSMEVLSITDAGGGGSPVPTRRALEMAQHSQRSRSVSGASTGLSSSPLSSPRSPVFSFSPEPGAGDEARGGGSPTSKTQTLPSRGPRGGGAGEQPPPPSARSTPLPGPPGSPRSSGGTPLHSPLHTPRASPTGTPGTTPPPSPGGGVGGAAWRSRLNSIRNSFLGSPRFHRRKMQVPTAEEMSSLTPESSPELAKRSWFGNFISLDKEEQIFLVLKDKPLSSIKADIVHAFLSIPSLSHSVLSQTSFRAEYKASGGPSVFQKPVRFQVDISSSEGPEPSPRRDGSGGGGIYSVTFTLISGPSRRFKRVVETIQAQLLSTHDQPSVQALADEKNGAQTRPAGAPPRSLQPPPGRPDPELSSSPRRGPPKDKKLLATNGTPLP

PRKCQ (human) = PRKCQ (human) (UniProt Q04759)
ZAP70 (human) = ZAP70 (human) (UniProt P43403)
ITK (human) = ITK (human) (UniProt Q08881)
NEK9 (human) = NEK9 (human) (UniProt Q8TD19)
ULK3 (human) = ULK3 (human) (UniProt Q6PHR2)
WEE1 (human) = WEE1 (human) (UniProt P30291)
NEK7 (human) = NEK7 (human) (UniProt Q8TDX7)
BMPR1B (human) = BMPR1B (human) (UniProt O00238)
DCLK2 (human) = DCLK2 (human) (UniProt Q8N568)
CAMK1D (human) = CAMK1D (human) (UniProt Q8IU85)
FLT1 (human) = FLT1 (human) (UniProt P17948)
EPHB1 (human) = EPHB1 (human) (UniProt P54762)
EPHA7 (human) = EPHA7 (human) (UniProt Q15375)
SRMS (human) = SRMS (human) (UniProt Q9H3Y6)
RIOK1 (human) = RIOK1 (human) (UniProt Q9BRS2)
BLK (human) = BLK (human) (UniProt P51451)
PRKAA1 (human) = PRKAA1 (human) (UniProt Q13131)
SLK (human) = SLK (human) (UniProt Q9H2G2)
CLK1 (human) = CLK1 (human) (UniProt P49759)
RIOK2 (human) = RIOK2 (human) (UniProt Q9BVS4)
SRC (human) = SRC (human) (UniProt P12931)
TEC (human) = TEC (human) (UniProt P42680)
TEC (human), sequence (P42680 whole entry, looked up): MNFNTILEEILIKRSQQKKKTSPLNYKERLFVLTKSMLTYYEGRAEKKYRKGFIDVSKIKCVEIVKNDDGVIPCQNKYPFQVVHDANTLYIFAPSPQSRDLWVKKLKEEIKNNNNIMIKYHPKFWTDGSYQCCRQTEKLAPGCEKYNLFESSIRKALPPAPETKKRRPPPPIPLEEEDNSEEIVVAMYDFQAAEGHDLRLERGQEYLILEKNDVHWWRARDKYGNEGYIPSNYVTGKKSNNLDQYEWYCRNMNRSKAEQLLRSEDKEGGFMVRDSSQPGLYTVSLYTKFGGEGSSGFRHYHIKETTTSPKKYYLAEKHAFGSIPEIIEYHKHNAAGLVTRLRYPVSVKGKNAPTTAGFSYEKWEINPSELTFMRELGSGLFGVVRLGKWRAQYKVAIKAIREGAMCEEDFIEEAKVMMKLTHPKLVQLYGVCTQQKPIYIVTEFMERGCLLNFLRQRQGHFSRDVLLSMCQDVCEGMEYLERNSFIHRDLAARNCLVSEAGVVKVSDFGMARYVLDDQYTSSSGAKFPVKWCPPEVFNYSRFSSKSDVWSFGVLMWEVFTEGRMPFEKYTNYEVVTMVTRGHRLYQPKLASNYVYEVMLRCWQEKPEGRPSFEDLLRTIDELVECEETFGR

RPS6KA2 KD1 (human) = RPS6KA2 KD1 (human) (UniProt Q15349)
EPHB3 (human) = EPHB3 (human) (UniProt P54753)
EPHB3 (human), sequence (P54753 whole entry, looked up): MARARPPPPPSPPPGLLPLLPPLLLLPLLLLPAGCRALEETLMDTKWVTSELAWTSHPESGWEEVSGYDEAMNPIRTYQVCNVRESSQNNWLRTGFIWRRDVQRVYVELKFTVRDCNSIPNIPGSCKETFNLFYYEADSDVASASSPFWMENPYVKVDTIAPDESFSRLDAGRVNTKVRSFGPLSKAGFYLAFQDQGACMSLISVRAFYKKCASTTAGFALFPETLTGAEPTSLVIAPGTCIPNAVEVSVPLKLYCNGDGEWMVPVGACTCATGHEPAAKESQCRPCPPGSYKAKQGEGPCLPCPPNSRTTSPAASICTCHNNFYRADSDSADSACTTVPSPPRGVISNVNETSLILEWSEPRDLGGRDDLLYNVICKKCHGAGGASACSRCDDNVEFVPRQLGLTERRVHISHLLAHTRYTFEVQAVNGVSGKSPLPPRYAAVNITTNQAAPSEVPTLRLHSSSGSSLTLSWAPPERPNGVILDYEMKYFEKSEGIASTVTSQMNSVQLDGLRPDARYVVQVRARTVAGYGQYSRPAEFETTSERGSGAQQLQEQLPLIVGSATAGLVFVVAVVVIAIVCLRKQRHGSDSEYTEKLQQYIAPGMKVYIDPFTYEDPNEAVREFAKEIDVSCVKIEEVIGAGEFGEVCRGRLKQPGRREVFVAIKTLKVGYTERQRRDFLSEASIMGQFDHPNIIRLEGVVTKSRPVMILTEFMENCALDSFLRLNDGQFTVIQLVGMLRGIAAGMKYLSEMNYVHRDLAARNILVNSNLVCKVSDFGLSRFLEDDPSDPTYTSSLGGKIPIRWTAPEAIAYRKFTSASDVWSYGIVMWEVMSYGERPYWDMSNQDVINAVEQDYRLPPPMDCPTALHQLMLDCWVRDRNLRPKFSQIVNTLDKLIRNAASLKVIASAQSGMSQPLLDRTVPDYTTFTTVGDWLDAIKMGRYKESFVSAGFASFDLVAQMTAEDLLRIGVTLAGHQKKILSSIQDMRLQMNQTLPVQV

EPHA2 (human) = EPHA2 (human) (UniProt P29317)
STK33 (human) = STK33 (human) (UniProt Q9BYT3)
STK33 (human), sequence (Q9BYT3 whole entry, looked up): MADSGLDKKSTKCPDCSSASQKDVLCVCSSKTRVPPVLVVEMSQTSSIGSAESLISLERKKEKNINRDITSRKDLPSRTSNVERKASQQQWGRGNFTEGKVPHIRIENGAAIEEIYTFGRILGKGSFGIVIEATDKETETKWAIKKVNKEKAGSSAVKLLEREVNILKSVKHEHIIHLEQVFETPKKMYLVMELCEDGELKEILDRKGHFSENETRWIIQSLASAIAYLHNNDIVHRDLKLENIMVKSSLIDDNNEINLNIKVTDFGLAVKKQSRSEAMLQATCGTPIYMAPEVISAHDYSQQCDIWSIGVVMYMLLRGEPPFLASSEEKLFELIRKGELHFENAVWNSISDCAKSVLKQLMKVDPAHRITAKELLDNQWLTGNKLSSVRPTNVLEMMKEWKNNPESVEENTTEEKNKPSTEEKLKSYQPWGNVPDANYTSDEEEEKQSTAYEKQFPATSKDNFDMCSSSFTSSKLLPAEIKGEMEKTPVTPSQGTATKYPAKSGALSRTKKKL

MAPK6 (human) = MAPK6 (human) (UniProt Q16659)
BRSK2 (human) = BRSK2 (human) (UniProt Q8IWQ3)
MAPK9 (human) = MAPK9 (human) (UniProt P45984)
CDK15 (human) = CDK15 (human) (UniProt Q96Q40)
ULK1 (human) = ULK1 (human) (UniProt O75385)

STK25 (human), sequence (O00506 whole entry, looked up): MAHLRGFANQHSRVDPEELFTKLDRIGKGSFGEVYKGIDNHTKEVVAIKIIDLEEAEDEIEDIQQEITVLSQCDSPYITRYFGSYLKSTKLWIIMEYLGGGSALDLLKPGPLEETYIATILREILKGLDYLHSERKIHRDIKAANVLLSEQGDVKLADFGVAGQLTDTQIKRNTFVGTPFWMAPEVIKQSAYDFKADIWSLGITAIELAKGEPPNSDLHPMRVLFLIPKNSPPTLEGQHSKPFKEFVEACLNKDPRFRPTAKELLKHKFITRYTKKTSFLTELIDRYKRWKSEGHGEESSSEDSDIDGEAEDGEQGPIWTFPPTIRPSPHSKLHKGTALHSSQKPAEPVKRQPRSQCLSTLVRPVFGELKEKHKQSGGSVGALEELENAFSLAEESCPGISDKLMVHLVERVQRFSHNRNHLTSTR
MELK (human), sequence (Q14680 whole entry, looked up): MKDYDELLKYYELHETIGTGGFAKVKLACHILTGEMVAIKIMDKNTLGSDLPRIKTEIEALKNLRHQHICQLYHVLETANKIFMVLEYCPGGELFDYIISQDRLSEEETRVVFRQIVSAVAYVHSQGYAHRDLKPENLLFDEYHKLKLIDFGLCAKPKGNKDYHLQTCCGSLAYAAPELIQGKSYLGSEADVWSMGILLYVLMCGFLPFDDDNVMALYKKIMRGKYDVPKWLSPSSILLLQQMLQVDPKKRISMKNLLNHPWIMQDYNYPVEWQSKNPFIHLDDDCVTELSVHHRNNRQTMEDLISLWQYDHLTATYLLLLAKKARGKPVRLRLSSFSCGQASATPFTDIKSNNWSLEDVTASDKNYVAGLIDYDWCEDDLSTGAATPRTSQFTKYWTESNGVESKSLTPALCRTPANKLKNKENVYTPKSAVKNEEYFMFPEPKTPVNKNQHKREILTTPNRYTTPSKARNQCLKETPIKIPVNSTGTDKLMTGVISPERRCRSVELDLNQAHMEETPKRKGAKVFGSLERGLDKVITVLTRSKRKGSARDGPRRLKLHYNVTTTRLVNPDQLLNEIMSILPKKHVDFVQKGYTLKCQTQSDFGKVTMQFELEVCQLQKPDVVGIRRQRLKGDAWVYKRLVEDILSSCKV
RIPK1 (human), sequence (Q13546 whole entry, looked up): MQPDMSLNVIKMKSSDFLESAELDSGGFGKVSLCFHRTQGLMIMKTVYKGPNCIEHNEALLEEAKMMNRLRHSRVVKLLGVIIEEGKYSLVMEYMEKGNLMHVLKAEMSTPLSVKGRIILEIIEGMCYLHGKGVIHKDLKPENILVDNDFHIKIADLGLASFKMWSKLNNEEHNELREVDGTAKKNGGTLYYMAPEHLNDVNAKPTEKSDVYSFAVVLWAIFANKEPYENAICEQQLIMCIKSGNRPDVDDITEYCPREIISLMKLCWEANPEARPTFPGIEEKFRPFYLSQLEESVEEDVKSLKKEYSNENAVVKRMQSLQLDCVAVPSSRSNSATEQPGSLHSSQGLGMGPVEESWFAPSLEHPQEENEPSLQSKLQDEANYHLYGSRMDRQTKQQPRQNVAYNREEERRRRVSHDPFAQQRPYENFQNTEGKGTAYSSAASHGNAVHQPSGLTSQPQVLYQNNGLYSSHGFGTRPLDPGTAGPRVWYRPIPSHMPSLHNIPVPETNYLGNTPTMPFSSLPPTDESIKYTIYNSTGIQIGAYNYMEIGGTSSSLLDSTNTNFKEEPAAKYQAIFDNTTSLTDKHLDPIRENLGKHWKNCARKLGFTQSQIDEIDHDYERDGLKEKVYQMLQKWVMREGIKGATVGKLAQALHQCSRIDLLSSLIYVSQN
MAPK3 (human), sequence (P27361 whole entry, looked up): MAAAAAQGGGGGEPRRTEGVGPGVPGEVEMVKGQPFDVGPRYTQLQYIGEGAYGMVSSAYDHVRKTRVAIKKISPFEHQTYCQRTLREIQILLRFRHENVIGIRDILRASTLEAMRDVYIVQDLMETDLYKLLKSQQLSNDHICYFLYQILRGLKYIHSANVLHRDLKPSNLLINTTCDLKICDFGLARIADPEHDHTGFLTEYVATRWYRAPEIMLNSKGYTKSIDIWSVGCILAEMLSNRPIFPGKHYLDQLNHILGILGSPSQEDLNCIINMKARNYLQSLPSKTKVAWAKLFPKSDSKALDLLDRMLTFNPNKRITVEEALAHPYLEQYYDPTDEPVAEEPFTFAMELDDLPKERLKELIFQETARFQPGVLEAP

SMILES	kinase still bound, per cent of control (STK25 (human)) [%]	kinase still bound, per cent of control (CSNK2A1 (human)) [%]	kinase still bound, per cent of control (MELK (human)) [%]	kinase still bound, per cent of control (MAPK3 (human)) [%]	kinase still bound, per cent of control (RIPK1 (human)) [%]	kinase still bound, per cent of control (PHKG1 (human)) [%]	kinase still bound, per cent of control (CDC42BPB (human)) [%]	kinase still bound, per cent of control (CSNK1G2 (human)) [%]	kinase still bound, per cent of control (BRSK1 (human)) [%]	kinase still bound, per cent of control (PRKCQ (human)) [%]	kinase still bound, per cent of control (ZAP70 (human)) [%]	kinase still bound, per cent of control (ITK (human)) [%]	kinase still bound, per cent of control (NEK9 (human)) [%]	kinase still bound, per cent of control (ULK3 (human)) [%]	kinase still bound, per cent of control (WEE1 (human)) [%]	kinase still bound, per cent of control (NEK7 (human)) [%]	kinase still bound, per cent of control (DCLK2 (human)) [%]	kinase still bound, per cent of control (CAMK1D (human)) [%]	kinase still bound, per cent of control (FLT1 (human)) [%]	kinase still bound, per cent of control (EPHB1 (human)) [%]	further results
Cc1ccc2nc(NCCN)c3ncc(C)n3c2c1	79	33	96	97	100	95	100	97	90	99	100	100	100	76	100	100	100	69	98	100	kinase still bound, per cent of control (BMPR1B (human)): 71%; kinase still bound, per cent of control (EPHA7 (human)): 100%; kinase still bound, per cent of control (SRMS (human)): 90%; kinase still bound, per cent of control (RIOK1 (human)): 100%; kinase still bound, per cent of control (BLK (human)): 100%; kinase still bound, per cent of control (PRKAA1 (human)): 82%; kinase still bound, per cent of control (SLK (human)): 100%; kinase still bound, per cent of control (CLK1 (human)): 72%; kinase still bound, per cent of control (RIOK2 (human)): 79%; kinase still bound, per cent of control (SRC (human)): 100%; kinase still bound, per cent of control (TEC (human)): 100%; kinase still bound, per cent of control (RPS6KA2 KD1 (human)): 100%; kinase still bound, per cent of control (EPHB3 (human)): 100%; kinase still bound, per cent of control (EPHA2 (human)): 93%; kinase still bound, per cent of control (STK33 (human)): 73%; kinase still bound, per cent of control (MAPK6 (human)): 27%; kinase still bound, per cent of control (BRSK2 (human)): 100%; kinase still bound, per cent of control (MAPK9 (human)): 44%; kinase still bound, per cent of control (CDK15 (human)): 100%
O=C(NOC[C@H](O)CO)c1ccc(F)c(F)c1Nc1ccc(I)cc1F	91	77	80	86	85	100	83	95	100	100	89	97	82	89	67	95	100	89	94	100	kinase still bound, per cent of control (ULK1 (human)): 100%; kinase still bound, per cent of control (BMPR1B (human)): 81%; kinase still bound, per cent of control (EPHA7 (human)): 94%; kinase still bound, per cent of control (SRMS (human)): 95%; kinase still bound, per cent of control (RIOK1 (human)): 95%; kinase still bound, per cent of control (BLK (human)): 83%; kinase still bound, per cent of control (PRKAA1 (human)): 100%; kinase still bound, per cent of control (SLK (human)): 93%; kinase still bound, per cent of control (CLK1 (human)): 95%; kinase still bound, per cent of control (SRC (human)): 69%; kinase still bound, per cent of control (TEC (human)): 100%; kinase still bound, per cent of control (RPS6KA2 KD1 (human)): 100%; kinase still bound, per cent of control (EPHB3 (human)): 89%; kinase still bound, per cent of control (EPHA2 (human)): 88%; kinase still bound, per cent of control (STK33 (human)): 79%; kinase still bound, per cent of control (MAPK6 (human)): 83%; kinase still bound, per cent of control (BRSK2 (human)): 100%; kinase still bound, per cent of control (MAPK9 (human)): 88%; kinase still bound, per cent of control (CDK15 (human)): 78%
CCC(=O)N1CCN(c2ccc(-n3c(=O)ccc4cnc5ccc(-c6cnc7ccccc7c6)cc5c43)cc2C(F)(F)F)CC1	84	94	50	91	1.9	100	3.4	100	78	91	100	100	100	100	42	90	100	88	79	100	kinase still bound, per cent of control (ULK1 (human)): 100%; kinase still bound, per cent of control (EPHA7 (human)): 98%; kinase still bound, per cent of control (SRMS (human)): 92%; kinase still bound, per cent of control (RIOK1 (human)): 81%; kinase still bound, per cent of control (BLK (human)): 75%; kinase still bound, per cent of control (PRKAA1 (human)): 91%; kinase still bound, per cent of control (SLK (human)): 94%; kinase still bound, per cent of control (CLK1 (human)): 49%; kinase still bound, per cent of control (RIOK2 (human)): 24%; kinase still bound, per cent of control (SRC (human)): 95%; kinase still bound, per cent of control (TEC (human)): 99%; kinase still bound, per cent of control (RPS6KA2 KD1 (human)): 100%; kinase still bound, per cent of control (EPHB3 (human)): 85%; kinase still bound, per cent of control (EPHA2 (human)): 59%; kinase still bound, per cent of control (STK33 (human)): 90%; kinase still bound, per cent of control (MAPK6 (human)): 1.8%; kinase still bound, per cent of control (BRSK2 (human)): 76%; kinase still bound, per cent of control (MAPK9 (human)): 40%; kinase still bound, per cent of control (CDK15 (human)): 88%
OCCCNc1cc(-c2ccnc(Nc3cccc(Cl)c3)n2)ccn1	100	100	100	100	100	100	100	100	100	100	100	100	100	100	100	100	100	100	100	100	kinase still bound, per cent of control (ULK1 (human)): 100%; kinase still bound, per cent of control (BMPR1B (human)): 100%; kinase still bound, per cent of control (EPHA7 (human)): 100%; kinase still bound, per cent of control (SRMS (human)): 100%; kinase still bound, per cent of control (RIOK1 (human)): 100%; kinase still bound, per cent of control (BLK (human)): 100%; kinase still bound, per cent of control (PRKAA1 (human)): 100%; kinase still bound, per cent of control (SLK (human)): 100%; kinase still bound, per cent of control (CLK1 (human)): 2.2%; kinase still bound, per cent of control (RIOK2 (human)): 100%; kinase still bound, per cent of control (SRC (human)): 100%; kinase still bound, per cent of control (TEC (human)): 100%; kinase still bound, per cent of control (RPS6KA2 KD1 (human)): 100%; kinase still bound, per cent of control (EPHB3 (human)): 100%; kinase still bound, per cent of control (EPHA2 (human)): 100%; kinase still bound, per cent of control (MAPK6 (human)): 100%; kinase still bound, per cent of control (BRSK2 (human)): 100%; kinase still bound, per cent of control (MAPK9 (human)): 100%; kinase still bound, per cent of control (CDK15 (human)): 100%
